US6544984B1, “2,3,4,5-tetrahydro-1H-(1,4)benzodiazepine-3-hydroxamic acids” (American Cyanamid Company, priority 1999, dated 2003)
Read-outs that look alike come from different tables or passages of the source.

Assays:
MMP-1 = target: T1, MMP-1 (Homo sapiens, UniProt P03956); assay: In vitro collagenase assay (fluorogenic peptide substrate); type: biochemical; settings: human recombinant fibroblast collagenase
T1 construct: human recombinant fibroblast collagenase (truncated, mw=18,828)
T1 sequence (P03956 100-269 limits assumed): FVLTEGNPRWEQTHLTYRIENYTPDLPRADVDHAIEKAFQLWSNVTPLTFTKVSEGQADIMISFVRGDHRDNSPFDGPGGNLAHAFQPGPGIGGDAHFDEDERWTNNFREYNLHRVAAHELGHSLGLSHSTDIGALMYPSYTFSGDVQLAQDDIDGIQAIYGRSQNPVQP
Excerpt: In Vitro Collagenase Assay
This assay was based on the cleavage of a peptide substrate ((Dnp-Pro-Cha-Gly-Cys(Me)-His-Ala-Lys(NMa)-NH2), available from Peptide International, Inc.) by collagenase releasing the fluorescent NMa group which was quantitated on the fluorometer as disclosed in Bickett et al., “A High Throughput Fluorogenic Substrate for Interstitial Collagenase (MMP-1) and Gelatinase (MMP-9)”, Anal. Biochem., 212:58-64, (1993). Dnp quenches the NMa fluorescence in the intact substrate.
The assay was run in HCBC assay buffer (50 mM HEPES, pH 7.0, 5 mM Ca^+2, 0.02% Brij, 0.5% Cysteine), with human recombinant fibroblast collagenase (truncated, mw=18,828, from Wyeth-Ayerst Research, Radnor, Pa.). The substrate was dissolved in methanol and stored frozen in 1 mM aliquots. Collagenase was stored frozen in buffer in 25 μM aliquots. In conducting the assay, the substrate was dissolved in HCBC buffer to a final concentration of 10 μM and collagenase to a final concentration of 5 nM. The compounds being examined were dissolved in methanol, DMSO, or HCBC. The methanol and DMSO were diluted in HCBC to <1.0%. The compounds were added to a 96 well plate containing enzyme and the reaction was started by the addition of substrate.
(§1) The reaction was read (excitation 340 nm, emission 444 nm) for 10 min. and the increase in fluorescence over time was plotted as a linear line. The slope of the line was calculated representing the reaction rate. The linearity of the reaction rate was confirmed (r^2>0.85). The mean (x±sem) of the control rate was calculated and compared for statistical significance (p<0.05) with drug-treated rates using Dunnett's multiple comparison test.

MMP-9 = target: T2, MMP-9 (Homo sapiens, UniProt P14780); assay: In vitro gelatinase assay (thiopeptide substrate, DTNB); type: biochemical; settings: human neutrophil gelatinase B
T2 construct: human neutrophil gelatinase B; from tissue; host or cells: human neutrophils
T2 sequence (P14780 94-707): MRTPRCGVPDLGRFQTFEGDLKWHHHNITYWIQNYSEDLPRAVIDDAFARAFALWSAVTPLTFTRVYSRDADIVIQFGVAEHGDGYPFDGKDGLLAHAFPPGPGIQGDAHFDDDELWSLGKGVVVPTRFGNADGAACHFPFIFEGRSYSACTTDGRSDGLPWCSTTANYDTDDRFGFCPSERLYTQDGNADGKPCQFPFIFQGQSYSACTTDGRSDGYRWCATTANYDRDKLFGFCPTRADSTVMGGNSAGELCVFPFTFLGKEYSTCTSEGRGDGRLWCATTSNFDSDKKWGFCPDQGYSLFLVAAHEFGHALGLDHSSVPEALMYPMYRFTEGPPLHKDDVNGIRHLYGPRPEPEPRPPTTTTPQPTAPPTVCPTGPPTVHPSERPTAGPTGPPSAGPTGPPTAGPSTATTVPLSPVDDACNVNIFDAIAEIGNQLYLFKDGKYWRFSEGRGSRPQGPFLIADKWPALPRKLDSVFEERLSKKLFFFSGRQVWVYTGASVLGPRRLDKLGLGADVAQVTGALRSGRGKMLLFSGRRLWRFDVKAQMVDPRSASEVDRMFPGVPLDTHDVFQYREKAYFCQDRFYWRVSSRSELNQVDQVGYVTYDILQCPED
Method: In Vitro Gelatinase Assay
The assay is based on the cleavage of the thiopeptide substrate ((Ac-Pro-Leu-Gly(2-mercapto-4-methyl-pentanoyl)-Leu-Gly-OEt), available from Bachem Bioscience) by the enzyme gelatinase, releasing the substrate product which reacts calorimetrically with DTNB ((5,5′-dithio-bis(2-nitro-benzoic acid)). This assay is disclosed in Weingarten et al., “Spectrophotometric Assay for Vertebrate Collegenase”, Anal. Biochem., 147:437-440, (1985). The enzyme activity is measured by the rate of the color increase.
The thiopeptide substrate was made up fresh as a 20 mM stock in 100% DMSO and the DTNB was dissolved in 100% DMSO as a 100 mM stock and stored in the dark at room temperature. The substrate and the DTNB were diluted together to 1 mM with substrate buffer (50 mM HEPES, pH 7.5, 5 mM CaCl2) before use. The stock of human neutrophil gelatinase B was diluted with assay buffer (50 mM HEPES, pH 7.5, 5 mM CaCl2, 0.02% Brij) to a final concentration of 0.15 nM.
The assay buffer, enzyme, DTNB/substrate (500 μM final concentration) and vehicle or inhibitor were added to a 96 well plate (total reaction volume of 200 μl) and the increase in color was monitored spectrophotometrically for 5 minutes at 405 nm on a plate reader.
The increase in OD405 was plotted and the slope of the line was calculated. The slope represents the reaction rate. The linearity of the reaction rate was confirmed (r^2>0.85) and the mean (x±sem) of the control rate was calculated and compared for statistical significance (p<0.05) with drug-treated rates using Dunnett's multiple comparison test.

MMP-13 = MMP-13 (Homo sapiens, UniProt P45452); assay: MMP-13 inhibition; type: biochemical
TACE = target: T3, TACE (Homo sapiens, UniProt P78536); assay: Procedure for measuring TACE inhibition (fluorescent peptidyl substrate); type: biochemical
T3 construct: purchased Immunex
T3 sequence (P78536 215-824): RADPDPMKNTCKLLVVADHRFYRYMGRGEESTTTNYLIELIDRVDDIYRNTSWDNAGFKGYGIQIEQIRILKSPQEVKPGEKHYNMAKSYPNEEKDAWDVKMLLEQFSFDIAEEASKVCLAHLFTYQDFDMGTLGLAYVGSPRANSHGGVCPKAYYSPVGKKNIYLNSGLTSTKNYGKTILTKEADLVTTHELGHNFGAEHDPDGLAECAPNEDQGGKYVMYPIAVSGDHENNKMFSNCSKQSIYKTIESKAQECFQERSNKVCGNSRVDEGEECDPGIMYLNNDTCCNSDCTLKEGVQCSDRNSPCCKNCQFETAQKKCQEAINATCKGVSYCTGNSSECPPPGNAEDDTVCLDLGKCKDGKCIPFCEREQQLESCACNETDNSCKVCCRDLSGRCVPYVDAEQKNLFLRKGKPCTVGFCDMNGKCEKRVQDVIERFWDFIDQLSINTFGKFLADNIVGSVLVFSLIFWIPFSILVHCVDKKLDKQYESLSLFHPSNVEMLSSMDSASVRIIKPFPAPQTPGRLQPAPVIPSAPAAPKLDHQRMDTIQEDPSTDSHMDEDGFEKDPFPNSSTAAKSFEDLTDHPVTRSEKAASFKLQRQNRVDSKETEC
Method: Procedure for Measuring TACE Inhibition
The plates were incubated for 10 minutes at room temperature. The reaction was initiated by addition of a fluorescent peptidyl substrate (final concentration 100 μM) to each well with shaking on a shaker for 5 sec.
as §1, with “420” for “444”, “and this represents” for “representing”, “The linearity of the reaction rate was confirmed (r^2>0.85).” left out

SMILES | IC50 (MMP-1) | IC50 (MMP-9) | IC50 (MMP-13; read-out: IC50 (nM) MMP-13) | melting point | IC50 (MMP-13) | IC50 (TACE) | IC50 (TACE; read-out: IC50 (nM) TACE)
CC#CCOc1ccc(S(=O)(=O)N2Cc3ccccc3N(C(C)=O)CC2C(=O)NO)cc1 (centres unmarked) [Example 1, 1-Acetyl-4-(4-but-2-ynyloxbenzenesulfonyl)-2,3,4,5-tetrahydro-1H-[1,4]benzodiazepine-3-carboxylic acid, hydroxyamide] | 835 nM | 228 nM | 77 nM |  |  |  | 16 nM
CC#CCOc1ccc(S(=O)(=O)N2Cc3ccccc3N(C(=O)c3ccccc3)CC2C(=O)NO)cc1 (centres unmarked) [Example 3, 1-Benzoyl-4-(4-but-2-ynyloxybenzenesulfonyl)-2,3,4,5-tetrahydro-1H-[1,4]-benzodiazepine-3-carboxylic acid, hydroxyamide] |  |  | 10 nM |  |  |  | 
CC#CCOc1ccc(S(=O)(=O)N2Cc3ccccc3N(C(=O)C3CC3)CC2C(=O)NO)cc1 (centres unmarked) [Example 58, 1-Cyclopropylcarbonyl-4-(4-but-ynyloxybenzenesulfonyl)-2,3,4,5-tetrahydro-1H-[1,4]benzodiazepine-3-carboxylic acid, hydorxyamide] | 841 nM | 33 nM | 29 nM |  |  |  | 

More lines, main results first:

IC50 (MMP-1) | IC50 (MMP-9) | IC50 (MMP-13; read-out: IC50 (nM) MMP-13) | melting point | IC50 (MMP-13) | IC50 (TACE) | SMILES | IC50 (TACE; read-out: IC50 (nM) TACE)
250 nM | 24 nM | 8 nM |  |  |  | CC#CCOc1ccc(S(=O)(=O)N2Cc3ccccc3N(C(=O)c3cccs3)CC2C(=O)NO)cc1 (centres unmarked) [Example 2, 4-(4-But-2-ynyloxybenzenesulfonyl)-1-(2-thienylcarbonyl)-2,3,4,5-tetrahydro-1H-[1,4]benzodiazepine-3-carboxylic acid, hydroxyamide] | 38 nM
125 nM | 2 nM |  | 119 to 120 °C | 7 nM | 33 nM | CC#CCOc1ccc(S(=O)(=O)N2Cc3ccccc3N(C(=O)c3ccco3)CC2C(=O)NO)cc1 (centres unmarked) [Example 57, 4-(4-But-2-ynyloxybenzenesulfonyl)-1-(2-furanylcarbonyl)-2,3,4,5-tetrahydro-1H-[1,4]benzodiazepine-3-carboxylic acid hydroxyamide] | 
